The test system of the test is human primary T-cells, IL-2 stimulated proliferation (JAK-1 and JAK-3 dependent; reported as JAK3 activity). The experiment in a line: Human primary T-cell proliferation stimulated by IL-2 (Example 3). It is filed as cell-based. Conditions: tested under conditions described in Example 3 (IL-2 stimulated human primary T-cell proliferation), read-out: ability to inhibit JAK3 activity, IC50 range (Table V). From the text:
The activity of the compounds described herein can further be characterized by assaying the effect of the 2,4-pyrimidinediamine compounds described herein on the proliferative response of primary human T-cells. In this assay, primary human T-cells derived from peripheral blood and pre-activated through stimulation of the T-cell receptor and CD28, proliferate in culture in response to the cytokine Interleukin-2 (IL-2). This proliferative response is dependent on the activation of JAK1 and JAK3 tyrosine kinases, which phosphorylate and activate the transcription factor Stat-5. The primary human T-cells are incubated with the 2,4-pyrimidinediamine compounds in the presence of IL-2 for 72 hours, and at the assay endpoint intracellular ATP concentrations are measured to assess cell viability. A reduction in cell proliferation compared to control conditions is indicative of inhibition of the JAK kinase pathway.
Primary human T-cells derived from peripheral blood and pre-activated through stimulation of the T-cell receptor and CD28, proliferate in vitro in response to the cytokine Interleukin-2 (IL-2). This proliferative response is dependent on the activation of JAK-1 and JAK-3 tyrosine kinases, which phosphorylate and activate the transcription factor Stat-5.
Human primary T cells were prepared as follows. […] The lymphocytes at the serum: ficoll interface were recovered and washed twice with 5 volumes of PBS. […] The primary T-cells were stimulated for 3-4 days, then transferred to a fresh flask and maintained in RPMI with 10% FBS and 40 U/mL IL-2.
The day prior to the assay set up, primary T-cells were centrifuged and resuspended in fresh RPMI with 10% FBS but without IL-2 and starved overnight. For the assay, the primary T-cells were centrifuged and resuspended Yssel's medium at 2×10^6 cells/mL. 50 μL of cell suspension containing 80 U/mL IL-2 was added to each well of a flat bottom 96 well black plate. For the unstimulated control, IL-2 was omitted from the last column on the plate. […] 50 μL of 2× compound was added per well in duplicate and the cells were allowed to proliferate for 72 hours at 37° C.
Proliferation was measured using CellTiter-Glo® Luminescent Cell Viability Assay (Promega), which determines the number of viable cells in culture based on quantitation of the ATP present, as an indicator of metabolically active cells. The substrate was thawed and allowed to come to ambient temperature. After mixing the Cell Titer-Glo reagent and diluent together, 100 μL was added to each well. The plates were mixed on an orbital shaker for two minutes to induce lysis and incubated at ambient temperature for an additional ten minutes to allow the signal to equilibrate.
The compound designations in Table V are consistent with those of Tables I-IV above.

This passage reports IC50 results from patent US10005767B2, “Compositions and methods for inhibition of the JAK pathway” (Rigel Pharmaceuticals, Inc., priority 2009, dated 2018).

Structures are written as SMILES. Where a name gives a salt, the structure may show the parent alone. Read-outs that look alike come from different tables or passages of the source.

With `COc1ccc(Nc2ncc(C)c(Nc3ccc4oc(=O)[nH]c4c3)n2)cc1C` [Compound I-258, 5-(2-(4-methoxy-3-methylphenylamino)-5-methylpyrimidin-4-ylamino)benzo[d]oxazol-2(3H)-one], the IC50 – broadly, the concentration needed to halve the response being measured – (Homo sapiens, T-cell) is less than 500 nM. For the compound `COc1cc(F)cc(Nc2ncc(C)c(Nc3ccc4oc(=O)[nH]c4c3)n2)c1` [Compound I-352, N2-(3-fluoro-5-methoxy)phenyl-5-methyl-N4-(2-oxo-2,3-dihydro-1,3-benzoxazol-5-yl)-2,4-pyrimidinediamine], the IC50 is less than 500 nM. For `Cc1cnc(Nc2ccc(N3CCC(NC(=O)OC(C)(C)C)C3)nc2)nc1Nc1ccc2oc(=O)[nH]c2c1` (stereo not drawn) [II-86, tert-butyl 1-(5-(5-methyl-4-(2-oxo-2,3-dihydrobenzo[d]oxazol-5-ylamino)pyrimidin-2-ylamino)pyridin-2-yl)pyrrolidin-3-ylcarbamate], the concentration for half-maximal inhibition (IC50) (Homo sapiens, T-cell) is less than 500 nM. Consider `Cc1cnc(Nc2cnc(N3CC4CN(C(=O)C5CC5)CC4C3)c(F)c2)nc1Nc1ccc2oc(=O)[nH]c2c1` (stereo not drawn) [II-53, 5-{2-[6-(5-Cyclopropanecarbonyl-hexahydro-pyrrolo[3,4-c]pyrrol-2-yl)-5-fluoro-pyridin-3-ylamino]-5-methyl-pyrimidin-4-ylamino}-3H-benzooxazol-2-one], for which the IC50 (Homo sapiens, T-cell) is less than 500 nM. Consider `Cc1cnc(Nc2ccc(N3CCC(F)(F)CC3)c(Cl)c2)nc1Nc1ccc2oc(=O)[nH]c2c1` [Compound I-277, N2-[3-chloro-4-(4,4-difluoropiperidinyl)]phenyl-5-methyl-N4-(2-oxo-2,3-dihydro-1,3-benzoxazol-5-yl)-2,4-pyrimidinediamine], for which the IC50 is less than 500 nM.

For the compound `Cc1cnc(Nc2cncc(Br)c2)nc1Nc1ccc2oc(=O)[nH]c2c1` [II-77, 5-(2-(5-bromopyridin-3-ylamino)-5-methylpyrimidin-4-ylamino)benzo[d]oxazol-2(3H)-one], the IC50 (Homo sapiens, T-cell) was in the range of 500 to 5000 nM. `Cc1cnc(Nc2ccc(-c3ccc(OCCCN(C)C)nc3)cc2)nc1Nc1ccc2oc(=O)[nH]c2c1` [Compound I-511, 5-(2-(4-(6-(3-(dimethylamino)propoxy)pyridin-3-yl)phenylamino)-5-methylpyrimidin-4-ylamino)benzo[d]oxazol-2(3H)-one trifluoroacetate salt]: the IC50 (Homo sapiens, T-cell) is less than 500 nM. `Cc1cnc(Nc2ccc3c(c2)CN(C(=O)C(C)(C)C)C3)nc1N(C(=O)C(C)(C)C)c1ccc2oc(=O)n(C(=O)C(C)(C)C)c2c1` [III-13, N-{2-[2-(2,2-Dimethyl-propionyl)-2,3-dihydro-1H-isoindol-5-ylamino]-5-methyl-pyrimidin-4-yl}-N-[3-(2,2-dimethyl-propionyl)-2-oxo-2,3-dihydro-benzooxazol-5-yl]-2,2-dimethyl-propionamide]: the IC50 (Homo sapiens, T-cell) was less than 500 nM. Regarding `Cc1cnc(Nc2ccc3c(c2)C(=O)N(C)CCCC3)nc1Nc1ccc2oc(=O)[nH]c2c1` [IV-14, 2-Methyl-9-[5-methyl-4-(2-oxo-2,3-dihydro-benzooxazol-5-ylamino)-pyrimidin-2-ylamino]-3,4,5,6-tetrahydro-2H-benzo[c]azocin-1-one], under “Homo sapiens, T-cell”, the IC50 is less than 500 nM.

Turning to `COc1cc(Nc2ncc(C)c(Nc3ccc4oc(=O)[nH]c4c3)n2)cc(C)c1F` [Compound I-432, 5-(2-(4-fluoro-3-methoxy-5-methylphenylamino)-5-methylpyrimidin-4-ylamino)benzo[d]oxazol-2(3H)-one], under “Homo sapiens, T-cell”, the IC50 was less than 500 nM. Consider `Cc1cnc(Nc2cc(Cl)cc(C(F)(F)F)c2)nc1Nc1ccc2oc(=O)[nH]c2c1` [Compound I-497, 5-[2-(3-Chloro-5-trifluoromethyl-phenylamino)-5-methyl-pyrimidin-4-ylamino]-3H-benzooxazol-2-one], for which, for the setting “Homo sapiens, T-cell”, the IC50 is more than 10000 nM.

Consider `COc1ccnc(Nc2ncc(C)c(Nc3ccc4oc(=O)[nH]c4c3)n2)c1` [IV-58, N2-(4-methoxypyridin-2-yl)-5-methyl-N4-(2-oxo-2,3-dihydro-1,3-benzoxazol-5-yl)-2,4-pyrimidinediamine], for which the IC50 (Homo sapiens, T-cell) was more than 10000 nM.
